Results from paper PMC12396409, “Screening and hit evaluation of a microbial metabolite library against the pathogenic Plasmodium falciparum and Toxoplasma gondii parasites” (International Journal for Parasitology: Drugs and Drug …, 2025).
Like-named read-outs stand apart in the source and are kept apart here.

Assays:
[1] = tested on: T. gondii RH strain (RH-Tub-eYFP) tachyzoites; test: microbe, parasite or virus in culture; format: cell-based, Toxoplasma gondii; conditions: 72 h; for percent parasite growth at 2 µg/mL: Toxoplasma gondii
[2] = tested on: P. falciparum 3D7 parasites; test: P. falciparum growth inhibition assay, 2-cycle (120 h treatment), delayed-death screen and dose-response; format: cell-based, Plasmodium falciparum
[3] = tested on: P. falciparum 3D7 parasites; test: P. falciparum growth inhibition assay, 1-cycle (72 h treatment), SYBR DNA staining (library screen at 2 μg/mL and dose-response); format: cell-based, Plasmodium falciparum
[4] = library screen at 2 μg/mL, % growth, replicate 1
[5] = library screen at 2 μg/mL, % growth, replicate 2
[6] = library screen at 2 μg/mL, 120 h, % growth, replicate 1
[7] = library screen at 2 μg/mL, 120 h, % growth, replicate 2
[8] = library screen at 2 μg/mL, 72 h, % growth, replicate 1
[9] = library screen at 2 μg/mL, 72 h, % growth, replicate 2
[10] = T. gondii, parasite screen at 2 μg/mL, % growth, replicate 1
[11] = T. gondii, parasite screen at 2 μg/mL, % growth, replicate 2
[12] = P. falciparum 3D7, 120 h, parasite screen at 2 μg/mL, % growth, replicate 1
[13] = P. falciparum 3D7, 72 h, parasite screen at 2 μg/mL, % growth, replicate 1
[14] = P. falciparum 3D7, 72 h, parasite screen at 2 μg/mL, % growth, replicate 2
[15] = T. gondii, 2 μg/mL, values are growth (% of control)

In the case of `COC12c3c(C)cc(O)c4c(=O)occ(c34)C(=O)C1C13COC(=O)c4c(O)cc(C)c(c41)C(=O)C2C3OC(C)=O` (stereo not drawn) [Duclauxin], the Tg_72h_%Growth_Rep1 [1, 4] is reported as 149.61%, the Tg_72h_%Growth_Rep2 [1, 5] is reported as 92.65% and the Pf_120h_%Growth_Rep1 [2, 6] is reported as 87.90%. For the same molecule, the Pf_120h_%Growth_Rep2 [2, 7] was 120.62%, the Pf_72h_%Growth_Rep1 [3, 8] was 87.43% and the Pf_72h_%Growth_Rep2 [3, 9] was 79.39%.
Molecule `Cc1cccc(O)c1C(=O)O` [BIA-M1655] has a Tg_72h_%Growth_Rep1 [1, 10] of 91.77%, a Tg_72h_%Growth_Rep2 [1, 11] of 83.98% and a Pf_120h_%Growth_Rep1 [2, 12] of 96.92%. It also gave a Pf_120h_%Growth_Rep2 ([2]; P. falciparum 3D7, 120 h, parasite screen at 2 μg/mL, % growth, replicate 2) of 97.37%, a Pf_72h_%Growth_Rep1 [3, 13] of 90.28% and a Pf_72h_%Growth_Rep2 [3, 14] of 64.98%.
With `O=c1cccc2n1C[C@H]1C[C@@H]2CN2CCCC[C@H]12` [Anagyrine] the percent parasite growth at 2 µg/mL ([1]; library screen at 2 μg/mL, % growth, replicate 1, read-out: Tg_72h_%Growth_Rep1) was 136%, the percent parasite growth at 2 µg/mL ([1]; library screen at 2 μg/mL, % growth, replicate 2, read-out: Tg_72h_%Growth_Rep2) was 82.1% and the activity at 2 µg/mL ([2]; Plasmodium falciparum, 3D7, 120 h, library screen at 2 μg/mL, 120 h, % growth, replicate 1, read-out: Pf_120h_%Growth_Rep1) was 106%. The activity at 2 µg/mL ([2]; Plasmodium falciparum, 3D7, 120 h, library screen at 2 μg/mL, 120 h, % growth, replicate 2, read-out: Pf_120h_%Growth_Rep2) was 103%, the activity at 2 µg/mL ([3]; Plasmodium falciparum, 3D7, 72 h, library screen at 2 μg/mL, 72 h, % growth, replicate 1, read-out: Pf_72h_%Growth_Rep1) was 88.8% and the activity at 2 µg/mL ([3]; Plasmodium falciparum, 3D7, 72 h, library screen at 2 μg/mL, 72 h, % growth, replicate 2, read-out: Pf_72h_%Growth_Rep2) was 124%.
Work on `CC(C)=CCc1cc(C=C2OC(=O)C(c3cc(CC=C(C)C)c(O)cc3O)=C2O)ccc1O` [Aspulvinone O] yielded a Tg_72h_%Growth_Rep1 [1, 4] of 90.15%, a Tg_72h_%Growth_Rep2 [1, 5] of 99.19% and a Pf_120h_%Growth_Rep1 [2, 6] of 144.60%. For the same molecule, the Pf_120h_%Growth_Rep2 [2, 7] was 98.61%, the Pf_72h_%Growth_Rep1 [3, 8] was 82.88% and the Pf_72h_%Growth_Rep2 [3, 9] was 86.74%.
For `CO[C@@H]1[C@@H](O[C@@H]2O[C@H](C)[C@@H](O[C@H]3C[C@@](C)(O)[C@@H](OC(=O)CC(C)C)[C@H](C)O3)[C@H](N(C)C)[C@H]2O)[C@@H](CC=O)C[C@@H](C)[C@@H](O)/C=C/C=C/C[C@@H](C)OC(=O)C[C@H]1OC(C)=O` [Josamycin (Leucomycin A3), reference compound], the Mean ([1]; T. gondii, 2 μg/mL, mean of both replicates, growth (% of control)) was 20.93, the “Replicate 1” value [1, 15] was 18.33 and the “Replicate 2” value [1, 15] was 23.52. For the same molecule, the “3) Fold change (72 h/120 h)” value [2] was 5.3, the activity at 2 µg/mL ([2]; Plasmodium falciparum, 3D7, 120 h, P. falciparum, 2 μg/mL, 120 h; read-out: 2) Growth (%) at 120 h) was 10.1% and the activity at 2 µg/mL ([3]; Plasmodium falciparum, 3D7, 72 h, P. falciparum, 2 μg/mL, 72 h; read-out: 1) Growth (%) at 72 h) was 53.5%.
Work on `Cc1nnc2n1-c1sc(CCC(=O)N3CCOCC3)cc1C(c1ccccc1Cl)=NC2` [WEB 2086] yielded a percent parasite growth at 2 µg/mL ([1]; T. gondii, screen at 2 μg/mL, replicate 1, read-out: Tg_72h_%Growth_Rep1) of 91.8%, a percent parasite growth at 2 µg/mL ([1]; T. gondii, screen at 2 μg/mL, replicate 2, read-out: Tg_72h_%Growth_Rep2) of 110% and an activity at 2 µg/mL ([2]; Plasmodium falciparum, 3D7, P. falciparum, 120 h, screen at 2 μg/mL, replicate 1, read-out: Pf_120h_%Growth_Rep1) of 157%. The activity at 2 µg/mL ([2]; Plasmodium falciparum, 3D7, P. falciparum, 120 h, screen at 2 μg/mL, replicate 2, read-out: Pf_120h_%Growth_Rep2) was 84.4%, the activity at 2 µg/mL ([3]; Plasmodium falciparum, 3D7, P. falciparum, 72 h, screen at 2 μg/mL, replicate 1, read-out: Pf_72h_%Growth_Rep1) was 87.3% and the activity at 2 µg/mL ([3]; Plasmodium falciparum, 3D7, P. falciparum, 72 h, screen at 2 μg/mL, replicate 2, read-out: Pf_72h_%Growth_Rep2) was 87.4%.
`OCC1=C[C@@H](N[C@H]2C[C@H](CO)[C@@H](O[C@H]3O[C@@H](CO)[C@H](O)[C@@H](O)[C@@H]3O)[C@H](O)[C@H]2O)[C@H](O)[C@@H](O)[C@@H]1O` [Validamycin A] was tested, and the Tg_72h_%Growth_Rep1 ([1]; T. gondii, screen at 2 μg/mL, replicate 1) was 87.00%, the Tg_72h_%Growth_Rep2 ([1]; T. gondii, screen at 2 μg/mL, replicate 2) was 98.14% and the Pf_120h_%Growth_Rep1 ([2]; P. falciparum, 120 h, screen at 2 μg/mL, replicate 1) was 167.49%. The Pf_120h_%Growth_Rep2 ([2]; P. falciparum, 120 h, screen at 2 μg/mL, replicate 2) was 74.14%, the Pf_72h_%Growth_Rep1 ([3]; P. falciparum, 72 h, screen at 2 μg/mL, replicate 1) was 75.67% and the Pf_72h_%Growth_Rep2 ([3]; P. falciparum, 72 h, screen at 2 μg/mL, replicate 2) was 70.52%.
For `COc1ccc2[nH]c3c(C)c4ccncc4c(C)c3c2c1` [BIA-M1952], the Tg_72h_%Growth_Rep1 [1, 10] was 3.28%, the Tg_72h_%Growth_Rep2 [1, 11] was 1.49% and the Pf_120h_%Growth_Rep2 [2] was -1.49%. For the same molecule, the Pf_120h_%Growth_Rep1 [2, 12] was 10.32%, the Pf_72h_%Growth_Rep1 [3, 13] was 9.89% and the Pf_72h_%Growth_Rep2 [3, 14] was -0.96%.
